Measurements reported in patent publication US9862717B2 (Merck Patent GmbH, priority 2014, dated 2018).

What follows are molecules tested against T1, CDK8/CycC (Homo sapiens, UniProt P49336) (assay: FRET based Lanthascreen binding competition assay for CDK8 inhibitory activity). Conditions: CDK8 co-expressed with CycC; class symbols; read-out: IC50.
T1 construct: purchased Invitrogen PV4402
Text: Biochemical Assay for CDK8 Inhibitory Activity FRET based Lanthascreen binding competition assay: A dye-labeled ATP competitive probe served as a FRET acceptor upon binding to CDK8 labeled with a strepavidin -Eu-chelate (via a biotinylated anti His antibody). The result was a fluorescence signal at 647 nm. In case this probe was competed by an inhibitor, such a signal cannot be generated any more. The CDK8 used for this assay was a protein co-expressed with CycC. The assay procedure for an assay in a 1536 well plate was performed according to the following: 2 μL CDK8/biotin-anti-His Ab/SA-Eu mix in Assay buffer were pipetted into the wells of a micro plate. 1 μL compound in 20 mM Hepes buffer/5% DMSO was added. The plate was shaken for 30 sec and incubated for 20 min at RT. 2 μL Alexa647-probe in assay buffer were added. The plate was shaken for 30 sec again and incubated for 60 min at RT in the dark. Then the plate was read out on a Perkin Elmer Envision (mode LANCE/TRF, excitation 340 nm emission 650 nm). […] The readouts were fitted to IC50 curves using Genedata Condoseo.

T1 sequence (P49336 whole entry): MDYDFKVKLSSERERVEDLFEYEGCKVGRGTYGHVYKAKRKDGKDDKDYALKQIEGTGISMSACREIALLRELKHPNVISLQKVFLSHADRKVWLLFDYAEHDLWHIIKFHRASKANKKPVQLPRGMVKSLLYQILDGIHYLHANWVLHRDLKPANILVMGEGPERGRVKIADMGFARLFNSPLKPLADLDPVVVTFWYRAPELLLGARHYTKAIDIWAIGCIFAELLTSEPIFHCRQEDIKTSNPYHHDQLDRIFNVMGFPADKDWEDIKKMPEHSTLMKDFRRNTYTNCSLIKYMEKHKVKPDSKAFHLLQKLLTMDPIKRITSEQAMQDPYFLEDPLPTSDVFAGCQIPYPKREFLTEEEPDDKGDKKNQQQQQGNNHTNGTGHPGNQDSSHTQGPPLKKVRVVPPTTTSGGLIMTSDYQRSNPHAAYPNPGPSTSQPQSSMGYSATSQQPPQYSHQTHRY
T1 sequence (P24863 whole entry partner): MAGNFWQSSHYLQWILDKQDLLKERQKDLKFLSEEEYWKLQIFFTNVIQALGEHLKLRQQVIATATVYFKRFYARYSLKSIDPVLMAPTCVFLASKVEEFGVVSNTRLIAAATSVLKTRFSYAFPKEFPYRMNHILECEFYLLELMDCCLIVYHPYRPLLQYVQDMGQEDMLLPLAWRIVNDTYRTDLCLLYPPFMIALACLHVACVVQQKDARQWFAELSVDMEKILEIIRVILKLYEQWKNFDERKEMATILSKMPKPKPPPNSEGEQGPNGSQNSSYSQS

Row | Structure (SMILES) | IC50 [µM]
1 | Nc1n[nH]c2ccc(C(=O)N3CCCCC3Cc3ccccc3)cc12 (stereo not drawn) [compound 81, (3-Amino-1H-indazol-5-yl)-(2-benzyl-piperidin-1-yl)-methanone] | 0.1 to 1
2 | Nc1n[nH]c2ccc(C(=O)N3CCCCC3c3ccccc3)cc12 (stereo not drawn) [compound 82, (3-Amino-1H-indazol-5-yl)-(2-phenyl-piperidin-1-yl)-methanone] | 0.01 to 0.1
3 | Nc1n[nH]c2ccc(C(=O)N3CCCC3c3ccccc3)cc12 (stereo not drawn) [compound 83, (3-Amino-1H-indazol-5-yl)-(2-phenyl-pyrrolidin-1-yl)-methanone] | 0.01 to 0.1
4 | Nc1n[nH]c2ccc(C(=O)N3CCC(c4ccccc4)C3)cc12 (stereo not drawn) [compound 84, (3-Amino-1H-indazol-5-yl)-(3-phenyl-pyrrolidin-1-yl)-methanone] | 0.1 to 1
5 | Nc1n[nH]c2ccc(C(=O)N3CC[C@H](c4ccccc4)C3)cc12 [compound 87, (3-Amino-1H-indazol-5-yl)-((R)-3-phenyl-pyrrolidin-1-yl)-methanone] | 0.1 to 1
6 | Nc1n[nH]c2ccc(C(=O)N3CC[C@@H](c4ccccc4)C3)cc12 [compound 88, (3-Amino-1H-indazol-5-yl)-((S)-3-phenyl-pyrrolidin-1-yl)-methanone] | 0.1 to 1
7 | Nc1n[nH]c2ccc(C(=O)N3CCC[C@@H]3c3ccccc3)cc12 [compound 91] | 0.01 to 0.1
8 | Nc1n[nH]c2ncc(C(=O)N3CCC[C@H]3c3ccc(Cl)cc3)cc12 [compound 96, (3-Amino-1H-pyrazolo[3,4-b]pyridin-5-yl)-[(S)-2-(4-chloro-phenyl)-pyrrolidin-1-yl]-methanone] | 0.01 to 0.1
9 | Nc1n[nH]c2ncc(C(=O)N3CCC[C@H]3c3ccc(Br)cc3)cc12 [compound 98, (3-Amino-1H-pyrazolo[3,4-b]pyridin-5-yl)-[(S)-2-(4-bromo-phenyl)-pyrrolidin-1-yl]-methanone] | 0.01 to 0.1
10 | Nc1n[nH]c2ccc(C(=O)N3CCC3c3ccc(Cl)cc3)cc12 (stereo not drawn) [compound 104, (3-Amino-1H-indazol-5-yl)-[2-(4-chloro-phenyl)-azetidin-1-yl]-methanone] | 0.01 to 0.1
11 | Nc1n[nH]c2ccc(C(=O)N3CCCCCC3c3ccc(Cl)cc3)cc12 (stereo not drawn) [compound 106, (3-Amino-1H-indazol-5-yl)-[2-(4-chloro-phenyl)-azepan-1-yl]-methanone] | 0.1 to 1
12 | Nc1n[nH]c2ccc(C(=O)N3CCCCCC3c3cccc(F)c3)cc12 (stereo not drawn) [compound 107, (3-Amino-1H-indazol-5-yl)-[2-(3-fluoro-phenyl)-azepan-1-yl]-methanone] | 0.1 to 1
13 | Nc1n[nH]c2ccc(C(=O)N3CCCC3c3ccc(C(F)(F)F)cc3)cc12 (stereo not drawn) [compound 112, (3-Amino-1H-indazol-5-yl)-[2-(4-trifluoromethyl-phenyl)-pyrrolidin-1-yl]-methanone] | 0.01 to 0.1
14 | CCOc1ccccc1C1CCCN1C(=O)c1ccc2[nH]nc(N)c2c1 (stereo not drawn) [compound 113, (3-Amino-1H-indazol-5-yl)-[2-(2-ethoxy-phenyl)-pyrrolidin-1-yl]-methanone] | 0.1 to 1
15 | Nc1n[nH]c2ccc(C(=O)N3CCCC3c3ccccc3OCC(F)(F)F)cc12 (stereo not drawn) [compound 114, (3-Amino-1H-indazol-5-yl)-{2-[2-(2,2,2-trifluoro-ethoxy)-phenyl]-pyrrolidin-1-yl}-methanone] | 0.1 to 1
16 | Nc1n[nH]c2ccc(C(=O)N3CCCC(c4ccccc4)C3)cc12 (stereo not drawn) [compound 115] | 0.1 to 1
17 | Nc1n[nH]c2ccc(C(=O)N3CCCC(c4ccc(Cl)cc4)C3)cc12 (stereo not drawn) [compound 116, (3-Amino-1H-indazol-5-yl)-[3-(4-chloro-phenyl)-piperidin-1-yl]-methanone] | 0.1 to 1
18 | Cc1n[nH]c2ncc(C(=O)N3CCC[C@H]3c3ccncc3)cc12 [compound 122, (3-Methyl-1H-pyrazolo[3,4-b]pyridin-5-yl)-((S)-2-pyridin-4-yl-pyrrolidin-1-yl)-methanone] | 0.1 to 1
19 | Cc1n[nH]c2ncc(C(=O)N3CC(O)CC3c3ccc(F)cc3)cc12 (stereo not drawn) [compound 127, [2-(4-Fluoro-phenyl)-4-hydroxy-pyrrolidin-1-yl]-(3-methyl-1H-pyrazolo[3,4-b]pyridin-5-yl)-methanone] | 0.1 to 1
20 | Cc1n[nH]c2ncc(C(=O)N3CCC[C@H]3c3cccnc3)cc12 [compound 129, (3-Methyl-1H-pyrazolo[3,4-b]pyridin-5-yl)-((S)-2-pyridin-3-yl-pyrrolidin-1-yl)-methanone] | 0.1 to 1
21 | Nc1n[nH]c2ccc(C(=O)N3CCC[C@H]3c3ccccc3)cc12 [compound 131, (3-Amino-1H-indazol-5-yl)-((S)-2-phenyl-pyrrolidin-1-yl)-methanone] | 0.1 to 1
22 | Nc1n[nH]c2ccc(C(=O)N3CCC[C@@H]3c3ccccc3)cc12 [compound 132, (3-Amino-1H-indazol-5-yl)-((R)-2-phenyl-pyrrolidin-1-yl)-methanone] | 0.1 to 1
23 | Cc1ccc([C@@H]2CCCN2C(=O)c2cnc3[nH]nc(C)c3c2)cc1 [compound 136, (3-Methyl-1H-pyrazolo[3,4-b]pyridin-5-yl)-((S)-2-p-tolyl-pyrrolidin-1-yl)-methanone] | < 0.01

Same assay, conditions: IC50 [μM], CDK8 co-expressed with CycC; class symbols

Row | Structure (SMILES) | IC50 [µM]
24 | Nc1n[nH]c2ccc(C(=O)N3CCC[C@H]3c3ccc(Cl)cc3)cc12 [compound 79, (3-Amino-1H-indazol-5-yl)-[(S)-2-(4-chloro-phenyl)-pyrrolidin-1-yl]-methanone] | < 0.01
25 | Nc1n[nH]c2ccc(C(=O)N3CCC[C@@H]3c3ccc(Cl)cc3)cc12 [compound 80, (3-amino-1H-indazol-5-yl)-[(R)-2-(4-chloro-phenyl)-pyrrolidin-1-yl]-methanone] | 0.1 to 1
26 | Nc1n[nH]c2ccc(C(=O)N3CCCC3c3ccc(F)cc3)cc12 (stereo not drawn) [compound 85, (3-Amino-1H-indazol-5-yl)-[2-(4-fluoro-phenyl)-pyrrolidin-1-yl]-methanone] | < 0.01
27 | Nc1n[nH]c2ccc(C(=O)N3CCCC[C@H]3c3ccc(F)cc3)cc12 [compound 92, (3-Amino-1H-indazol-5-yl)-[(S)-2-(4-fluoro-phenyl)-piperidin-1-yl]-methanone] | 0.01 to 0.1
28 | Nc1n[nH]c2ccc(C(=O)N3CCC3c3ccc(F)cc3)cc12 (stereo not drawn) [compound 105, (3-Amino-1H-indazol-5-yl)-[2-(4-fluoro-phenyl)-azetidin-1-yl]-methanone] | 0.01 to 0.1
29 | Nc1n[nH]c2ccc(C(=O)N3CCC(c4ccc(Cl)cc4)C3)cc12 (stereo not drawn) [compound 117, (3-Amino-1H-indazol-5-yl)-[3-(4-chloro-phenyl)-pyrrolidin-1-yl]-methanone] | 0.01 to 0.1
30 | Nc1n[nH]c2ccc(C(=O)N3CCC[C@@H]3c3ccc(F)cc3)cc12 [compound 120, (3-Amino-1H-indazol-5-yl)-[(R)-2-(4-fluoro-phenyl)-pyrrolidin-1-yl]-methanone] | 0.1 to 1
31 | Nc1n[nH]c2ccc(C(=O)N3CCC[C@H]3c3ccc(F)cc3)cc12 [compound 124, (3-Amino-1H-indazol-5-yl)-[(S)-2-(4-fluoro-phenyl)-pyrrolidin-1-yl]-methanone] | 0.01 to 0.1
32 | Nc1n[nH]c2ccc(C(=O)N3CC[C@H]3c3ccc(F)cc3)cc12 [compound 134, (3-Amino-1H-indazol-5-yl)-[(S)-2-(4-fluoro-phenyl)-azetidin-1-yl]-methanone] | 0.01 to 0.1
33 | Nc1n[nH]c2ccc(C(=O)N3CC[C@@H]3c3ccc(F)cc3)cc12 [compound 135, (3-Amino-1H-indazol-5-yl)-[(R)-2-(4-fluoro-phenyl)-azetidin-1-yl]-methanone] | 0.1 to 1
